Target: T1, KCNT1 (KNa1.1, Slack) (Homo sapiens, UniProt Q5JUK3)
T1 construct: expressed in transfected cells; host or cells: HEK-TREX (tetracycline-inducible HEK cell line)
T1 sequence (Q5JUK3 1-1230): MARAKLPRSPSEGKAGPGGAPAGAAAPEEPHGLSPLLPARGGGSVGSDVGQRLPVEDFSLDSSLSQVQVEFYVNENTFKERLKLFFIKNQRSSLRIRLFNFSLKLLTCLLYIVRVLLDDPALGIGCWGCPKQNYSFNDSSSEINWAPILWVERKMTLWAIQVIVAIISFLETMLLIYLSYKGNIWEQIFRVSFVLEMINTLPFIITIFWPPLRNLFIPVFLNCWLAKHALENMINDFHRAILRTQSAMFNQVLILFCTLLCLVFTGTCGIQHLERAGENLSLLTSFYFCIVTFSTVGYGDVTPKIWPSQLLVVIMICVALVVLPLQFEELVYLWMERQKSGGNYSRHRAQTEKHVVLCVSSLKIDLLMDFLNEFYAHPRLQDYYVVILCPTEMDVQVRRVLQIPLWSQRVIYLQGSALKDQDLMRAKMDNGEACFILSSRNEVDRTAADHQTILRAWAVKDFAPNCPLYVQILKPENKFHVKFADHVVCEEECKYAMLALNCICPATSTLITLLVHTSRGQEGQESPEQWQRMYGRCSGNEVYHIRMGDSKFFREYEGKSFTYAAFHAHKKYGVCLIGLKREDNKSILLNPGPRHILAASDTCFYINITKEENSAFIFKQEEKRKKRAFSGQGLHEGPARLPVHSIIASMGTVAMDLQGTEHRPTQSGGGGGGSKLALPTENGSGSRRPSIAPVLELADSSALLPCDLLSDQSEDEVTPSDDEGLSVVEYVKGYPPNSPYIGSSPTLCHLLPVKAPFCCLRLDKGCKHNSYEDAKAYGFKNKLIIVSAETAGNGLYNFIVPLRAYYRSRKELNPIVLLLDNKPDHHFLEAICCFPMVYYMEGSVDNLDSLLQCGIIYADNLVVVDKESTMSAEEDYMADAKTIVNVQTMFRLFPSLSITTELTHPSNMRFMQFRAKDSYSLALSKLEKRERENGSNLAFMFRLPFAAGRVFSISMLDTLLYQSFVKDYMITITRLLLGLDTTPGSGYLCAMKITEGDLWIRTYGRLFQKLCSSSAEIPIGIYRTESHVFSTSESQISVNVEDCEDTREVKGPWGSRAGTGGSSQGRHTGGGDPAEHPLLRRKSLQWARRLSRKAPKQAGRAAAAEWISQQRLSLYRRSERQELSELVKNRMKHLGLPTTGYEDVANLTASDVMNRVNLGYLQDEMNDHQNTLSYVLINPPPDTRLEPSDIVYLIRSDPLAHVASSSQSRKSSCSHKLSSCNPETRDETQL
Test: KCNT1-WT-Basal patch clamp assay (SyncroPatch 384PE, HEK-TREX inducible cell line)
Assay type: cell-based
Details: tetracycline inducible HEK-TREX cells; perforated patch; holding -80 mV, 100 ms step to 0 mV; room temperature; read-out: KCNT1 WB IC50
Description: KCNT1-WT-Basal—Patch Clamp Assay
Inhibition of KCNT1 (KNa1.1, Slack) was evaluated using a tetracycline inducible cell line (HEK-TREX). Currents were recorded using the SyncroPatch 384PE automated, patch clamp system. Pulse generation and data collection were performed with PatchController384 V1.3.0 and DataController384 V1.2.1 (Nanion Technologies). The access resistance and apparent membrane capacitance were estimated using built-in protocols. Current were recorded in perforated patch mode (10 μM escin) from a population of cells. The cells were lifted, triturated, and resuspended at 800,000 cells/ml. The cells were allowed to recover in the cell hotel prior to experimentation. Currents were recorded at room temperature. The external solution contained the following (in mM): NaCl 105, NMDG 40, KCl 4, MgCl2 1, CaCl2 5 and HEPES 10 (pH=7.4, Osmolarity ˜300 mOsm). The extracellular solution was used as the wash, reference and compound delivery solution. The internal solution contained the following (in mM): NaCl 70, KF 70, KCl 10, EGTA 5, HEPES 5 and Escin 0.01 (pH=7.2, Osmolarity ˜295 mOsm). Escin is made at a 5 mM stock in water, aliquoted, and stored at −20° C. The compound plate was created at 2× concentrated in the extracellular solution. The compound was diluted to 1:2 when added to the recording well. The amount of DMSO in the extracellular solution was held constant at the level used for the highest tested concentration. A holding potential of −80 mV with a 100 ms step to 0 mV was used. Mean current was measured during the step to 0 mV. […] The average mean current from 3 sweeps was calculated and the % inhibition of each compound was calculated. The % Inhibition as a function of the compound concentration was fit with a Hill equation to derive IC50, slope, min and max parameters. If KCNT1 inhibition was less than 50% at the highest tested concentration or if an IC50 could not be calculated, then a percent inhibition was reported in place of the IC50.

| Structure (SMILES) | IC50 [µM] |
| --- | --- |
| CNS(=O)(=O)c1ccc(C(=O)N[C@H]2CCCc3cc(Cl)ccc32)s1 (single isomer, unassigned) [Compound I-22] | ≤ 1 |
| CNS(=O)(=O)c1ccc(C(=O)N[C@@H]2CCCc3cc(Cl)ccc32)s1 (single isomer, unassigned) [Compound I-23] | 1 to 20 |
| CS(=O)(=O)c1ccc(C(=O)N[C@H]2CCCc3cc(Cl)ccc32)s1 (single isomer, unassigned) [Compound I-24] | ≤ 1 |
| CS(=O)(=O)c1ccc(C(=O)N[C@@H]2CCCc3cc(Cl)ccc32)s1 (single isomer, unassigned) [Compound I-25] | ≥ 20 |
| NC(=O)c1ccc(C(=O)N[C@H]2CCCc3cc(Cl)ccc32)s1 (single isomer, unassigned) [Compound I-30] | ≥ 20 |
| NC(=O)c1ccc(C(=O)N[C@@H]2CCCc3cc(Cl)ccc32)s1 (single isomer, unassigned) [Compound I-31] | ≤ 1 |
| NS(=O)(=O)c1ccc(C(=O)N[C@H]2CCCc3cc(Cl)ccc32)s1 (single isomer, unassigned) [Compound I-32] | ≤ 1 |
| NS(=O)(=O)c1ccc(C(=O)N[C@@H]2CCCc3cc(Cl)ccc32)s1 (single isomer, unassigned) [Compound I-33] | ≥ 20 |
| CN(c1ccc(C(=O)NC2CCc3cc(Cl)ccc32)cc1)S(C)(=O)=O (single isomer, unassigned) [Compound II-1, N-(5-chloroindan-1-yl)-4-[methyl(methylsulfonyl)amino]benzamide] | ≥ 20 |
| CN(c1ccc(C(=O)NC2CCc3cc(Cl)ccc32)cc1)S(C)(=O)=O (single isomer, unassigned) [Compound II-2, N-(5-chloroindan-1-yl)-4-[methyl(methylsulfonyl)amino]benzamide] | ≤ 1 |
| CS(=O)(=O)Cc1ccc(C(=O)NC2CCc3cc(Cl)ccc32)cc1 (single isomer, unassigned) [Compound II-5, N-(5-chloroindan-1-yl)-4-(methylsulfonylmethyl)benzamide] | ≥ 20 |
| CS(=O)(=O)Cc1ccc(C(=O)NC2CCc3cc(Cl)ccc32)cc1 (single isomer, unassigned) [Compound II-6, N-(5-chloroindan-1-yl)-4-(methylsulfonylmethyl)benzamide] | 1 to 20 |
| COc1ccc(C(=O)NC2CCc3cc(Cl)ccc32)cc1 (single isomer, unassigned) [Compound II-7, N-(5-chloroindan-1-yl)-4-methoxy-benzamide] | ≥ 20 |
| COc1ccc(C(=O)NC2CCc3cc(Cl)ccc32)cc1 (single isomer, unassigned) [Compound II-8, N-(5-chloroindan-1-yl)-4-methoxy-benzamide] | 1 to 20 |
| Nc1ccc(C(=O)N[C@H]2CCc3cc(Cl)ccc32)cc1 (single isomer, unassigned) [Compound II-16] | ≥ 20 |
| O=C(N[C@@H]1CCc2cc(Cl)ccc21)c1ccc(F)cc1 (single isomer, unassigned) [Compound II-31] | ≥ 20 |
| O=C(N[C@H]1CCc2cc(Cl)ccc21)c1ccc(F)cc1 (single isomer, unassigned) [Compound II-41] | ≥ 20 |
| CS(=O)(=O)Nc1ccc(C(=O)NC2CCCc3cc(Cl)ccc32)cc1 (single isomer, unassigned) [Compound II-52, N-(6-chlorotetralin-1-yl)-4-(methanesulfonamido)benzamide] | ≥ 20 |
| CS(=O)(=O)Nc1ccc(C(=O)NC2CCCc3cc(Cl)ccc32)cc1 (single isomer, unassigned) [Compound II-53, N-(6-chlorotetralin-1-yl)-4-(methanesulfonamido)benzamide] | ≤ 1 |
| CS(=O)(=O)c1ccc(C(=O)N[C@H]2CCCc3cc(Cl)ccc32)cc1 (single isomer, unassigned) [Compound II-55] | 1 to 20 |

| Structure (SMILES) | IC50 [µM] |
| --- | --- |
| CS(=O)(=O)Nc1ccc(C(=O)NC2CCc3cc(C(F)(F)F)ccc32)cc1 (single isomer, unassigned) [Compound II-56, 4-(methanesulfonamido)-N-[5-(trifluoromethyl)indan-1-yl]benzamide] | ≤ 1 |
| CS(=O)(=O)Nc1ccc(C(=O)NC2CCc3cc(F)ccc32)cc1 (single isomer, unassigned) [Compound II-57, N-[5-fluoroindan-1-yl]-4-(methanesulfonamido)benzamide] | 1 to 20 |
| CS(=O)(=O)Nc1ccc(C(=O)NC2CCc3cc(C(F)(F)F)ccc32)cc1 (single isomer, unassigned) [Compound II-58, 4-(methanesulfonamido)-N-[5-(trifluoromethyl)indan-1-yl]benzamide] | > 20 |
| CS(=O)(=O)Nc1ccc(C(=O)NC2CCc3cc(F)ccc32)cc1 (single isomer, unassigned) [Compound II-59, N-[5-fluoroindan-1-yl]-4-(methanesulfonamido)benzamide] | > 20 |
| COc1ccc(C(=O)NC2CCc3cc(Cl)ccc32)c(O)c1 (single isomer, unassigned) [Compound III-1, N-(5-chloroindan-1-yl)-2-hydroxy-4-methoxy-benzamide] | > 20 |
| COc1ccc(C(=O)NC2CCc3cc(Cl)ccc32)c(O)c1 (single isomer, unassigned) [Compound III-2, N-(5-chloroindan-1-yl)-2-hydroxy-4-methoxy-benzamide] | ≤ 1 |
| Cn1nc(C(=O)N[C@@H]2CCc3cc(Cl)ccc32)cc1C1CC1 [Compound I-1] | 1 to 20 |
| Cn1nc(C2CC2)cc1C(=O)N[C@@H]1CCc2cc(Cl)ccc21 [Compound I-2] | 1 to 20 |
| NS(=O)(=O)c1ccc(C(=O)N[C@@H]2CCc3cc(Cl)ccc32)o1 [Compound I-3] | 1 to 20 |
| NS(=O)(=O)c1ccc(C(=O)N[C@@H]2CCc3cc(Cl)ccc32)s1 [Compound I-4] | ≤ 1 |
| NS(=O)(=O)c1csc(C(=O)N[C@@H]2CCc3cc(Cl)ccc32)c1 [Compound I-5] | 1 to 20 |
| NS(=O)(=O)c1cc(C(=O)N[C@@H]2CCc3cc(Cl)ccc32)cs1 [Compound I-6] | ≤ 1 |
| Cn1cc(S(N)(=O)=O)cc1C(=O)N[C@@H]1CCc2cc(Cl)ccc21 [Compound I-7] | ≥ 20 |
| Cc1sc(C(=O)N[C@@H]2CCc3cc(Cl)ccc32)cc1S(N)(=O)=O [Compound I-8] | 1 to 20 |
| Cc1oc(C(=O)N[C@@H]2CCc3cc(Cl)ccc32)cc1S(N)(=O)=O [Compound I-9] | 1 to 20 |
| Cc1cc(S(N)(=O)=O)sc1C(=O)N[C@@H]1CCc2cc(Cl)ccc21 [Compound I-10] | 1 to 20 |
| Cc1oc(S(N)(=O)=O)cc1C(=O)N[C@@H]1CCc2cc(Cl)ccc21 [Compound I-11] | ≥ 20 |
| Cc1cc(S(N)(=O)=O)oc1C(=O)N[C@@H]1CCc2cc(Cl)ccc21 [Compound I-12] | ≥ 20 |
| Cn1c(C(=O)N[C@@H]2CCc3cc(Cl)ccc32)ccc1S(N)(=O)=O [Compound I-13] | ≥ 20 |

Reference: patent US20220280476A1, “KCNT1 INHIBITORS AND METHODS OF USE” (Praxis Precision Medicines, Inc., priority 2019, published 2022)
